Assay results reported in ChEMBL document CHEMBL1144792, “Beta-carboline alkaloids from a Korean tunicate Eudistoma sp” (2008).
Converted amounts (≈) assume the structure as drawn. The source made the active and inactive calls. No cut-off for these calls is given here.

What was measured:
[1] = test system: Staphylococcus epidermidis; test: Antibacterial activity against Staphylococcus epidermidis ATCC 12228 after 24 hrs by 2-fold microtiter broth dilution method; assay type: functional; conditions: ATCC 12228, 24 h
Bacillus subtilis = test: Antibacterial activity against Bacillus subtilis ATCC 6633 after 24 hrs by 2-fold microtiter broth dilution method; assay type: functional; conditions: ATCC 6633, 24 h
Micrococcus luteus = test: Antibacterial activity against Micrococcus luteus ATCC 9341 after 24 hrs by 2-fold microtiter broth dilution method; assay type: functional, organism-based
Staphylococcus aureus = test: Antibacterial activity against Staphylococcus aureus ATCC 6538 after 24 hrs by 2-fold microtiter broth dilution method; assay type: functional, organism-based
Escherichia coli = test: Antibacterial activity against Escherichia coli ATCC 11775 after 24 hrs by 2-fold microtiter broth dilution method; assay type: functional, organism-based
Salmonella typhimurium = test: Antibacterial activity against Salmonella Typhimurium ATCC 14028 after 24 hrs by 2-fold microtiter broth dilution method; assay type: functional, organism-based; conditions: Salmonella enterica subsp. enterica serovar Typhimurium
Klebsiella pneumoniae = test: Antibacterial activity against Klebsiella pneumoniae ATCC 4352 after 24 hrs by 2-fold microtiter broth dilution method; assay type: functional, organism-based

Compound	MIC [1] [µg/mL]	MIC (Bacillus subtilis) [µg/mL]	Activity (Micrococcus luteus)	Activity (Staphylococcus aureus)	Activity (Escherichia coli)	Activity (Salmonella typhimurium)	Activity (Klebsiella pneumoniae)
O=C(c1ccc(O)cc1)c1nccc2c1[nH]c1ccccc12 [EUDISTOMIN Y1]	50 (≈ 173 µM)						
O=C(c1ccc(O)c(Br)c1)c1nccc2c1[nH]c1ccc(Br)cc12 [EUDISTOMIN Y4]		200 (≈ 448 µM)					
O=C(c1cc(Br)c(O)c(Br)c1)c1nccc2c1[nH]c1ccc(Br)cc12 [EUDISTOMIN Y6]	12.5 (≈ 23.8 µM)	25 (≈ 47.6 µM)	inactive	inactive	inactive	inactive	inactive
